Assay results published in PubChem BioAssay (NCI).
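Dose response: 5 concentrations. Exposure: 48 h. Format: 96-well plates. Endpoint: linear interpolation; highest concentration if not reached. GI50 is the concentration that inhibits growth by half. TGI denotes the concentration required for complete inhibition of growth.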

Tests used:
Assay in all cases: DTP human tumour cell line panel, 48 h
[1] = test system: NCI-H460 lung
[2] = test system: PC-3 prostate
[3] = test system: HOP-92 NSCLC
[4] = test system: OVCAR-5 ovarian
[5] = test system: SNB-19 CNS
[6] = test system: SR leukemia
[7] = test system: OVCAR-4 ovarian
[8] = test system: ACHN renal
[9] = test system: U251 CNS
[10] = test system: KM12 colon
[11] = test system: NCI-H522 lung
[12] = test system: MDA-MB-231 breast
[13] = test system: EKVX NSCLC
[14] = test system: HCC-2998 colon
[15] = test system: SN12C renal
[16] = test system: SW-620 colon
[17] = test system: MCF7 breast
[18] = test system: IGROV1 ovarian
[19] = test system: HL-60(TB) leukemia
[20] = test system: MOLT-4 leukemia
[21] = test system: NCI-H226 lung
[22] = test system: 786-0 renal
[23] = test system: CCRF-CEM leukemia
[24] = test system: CAKI-1 renal
[25] = test system: SK-MEL-2 melanoma
[26] = test system: MALME-3M melanoma
[27] = test system: SF-295 CNS
[28] = test system: HS 578T breast
[29] = test system: HCT-116 colon
[30] = test system: UO-31 renal
[31] = test system: SK-MEL-28 melanoma
[32] = test system: RPMI-8226 leukemia
[33] = test system: SNB-75 CNS
[34] = test system: K-562 leukemia
[35] = test system: SF-539 CNS
[36] = test system: NCI/ADR-RES ovarian
[37] = test system: LOX IMVI melanoma
[38] = test system: MDA-MB-435
[39] = test system: OVCAR-8 ovarian
[40] = test system: SK-MEL-5 melanoma
[41] = test system: HOP-62 NSCLC
[42] = test system: SK-OV-3 ovarian
[43] = test system: UACC-257 melanoma
[44] = test system: T-47D breast
[45] = test system: TK-10 renal
[46] = test system: COLO 205 colon
[47] = test system: A549 NSCLC
[48] = test system: HT29 colon
[49] = test system: RXF 393 renal
[50] = test system: M14 melanoma
[51] = test system: UACC-62 melanoma
[52] = test system: BT-549 breast
[53] = test system: HCT-15 colon
[54] = test system: SF-268 CNS
[55] = test system: DU-145 prostate
[56] = test system: A498 renal
[57] = test system: NCI-H23 lung

## COc1ccc(-c2cc(-c3cccc4ccccc34)n3c(n2)nc2ccccc23)cc1OC
[1]
  GI50: 357 nM
  TGI: 1750 nM
[2]
  GI50: 2500 nM
  TGI: > 100000 nM
[3]
  GI50: 1650 nM
  TGI: 7990 nM
[4]
  GI50: 3030 nM
  TGI: > 100000 nM
[5]
  GI50: 2590 nM
  TGI: > 100000 nM
[6]
  GI50: 362 nM
  TGI: > 100000 nM
[7]
  GI50: 4770 nM
  TGI: > 100000 nM
[8]
  GI50: 461 nM
  TGI: 3350 nM
[9]
  GI50: 1160 nM
  TGI: > 100000 nM
[10]
  GI50: 9430 nM
  TGI: > 100000 nM
[11]
  GI50: 2750 nM
  TGI: > 100000 nM
[12]
  GI50: 1520 nM
  TGI: > 100000 nM
[13]
  GI50: 2790 nM
  TGI: > 100000 nM
[14]
  GI50: 1620 nM
  TGI: 4720 nM
[15]
  GI50: 1330 nM
  TGI: > 100000 nM
[16]
  GI50: 780 nM
  TGI: > 100000 nM
[17]
  GI50: 509 nM
  TGI: > 100000 nM
[18]
  GI50: 1480 nM
  TGI: > 100000 nM
[19]
  GI50: 419 nM
  TGI: 3290 nM
[20]
  GI50: 354 nM
  TGI: > 100000 nM
[21]
  GI50: 1160 nM
  TGI: 6700 nM
[22]
  GI50: 1570 nM
  TGI: > 100000 nM
[23]
  GI50: 556 nM
  TGI: > 100000 nM
[24]
  GI50: 559 nM
  TGI: > 100000 nM
[25]
  GI50: 2570 nM
  TGI: 7470 nM
[26]
  GI50: 882 nM
  TGI: 16700 nM
[27]
  GI50: 582 nM
  TGI: 5330 nM
[28]
  GI50: 1420 nM
  TGI: > 100000 nM
[29]
  GI50: 1660 nM
  TGI: 49000 nM
[30]
  GI50: 675 nM
  TGI: > 100000 nM
[31]
  GI50: 2880 nM
  TGI: > 100000 nM
[32]
  GI50: 1340 nM
  TGI: 4290 nM
[33]
  GI50: 867 nM
  TGI: 4600 nM
[34]
  GI50: 1320 nM
  TGI: > 100000 nM
[35]
  GI50: 1020 nM
  TGI: 7670 nM
[36]
  GI50: 2070 nM
  TGI: > 100000 nM
[37]
  GI50: 975 nM
  TGI: 6650 nM
[38]
  GI50: 2720 nM
  TGI: > 100000 nM
[39]
  GI50: 1060 nM
  TGI: > 100000 nM
[40]
  GI50: 960 nM
  TGI: 2840 nM
[41]
  GI50: 650 nM
  TGI: 4510 nM
[42]
  GI50: 2550 nM
  TGI: 44900 nM
[43]
  GI50: 2140 nM
  TGI: 40300 nM
[44]
  GI50: 1730 nM
  TGI: 9240 nM
[45]
  GI50: 2470 nM
  TGI: > 100000 nM
[46]
  GI50: 626 nM
  TGI: > 100000 nM
[47]
  GI50: 580 nM
  TGI: 15200 nM
[48]
  GI50: 1910 nM
  TGI: 28200 nM
[49]
  GI50: 2750 nM
  TGI: > 100000 nM
[50]
  GI50: 2080 nM
  TGI: > 100000 nM
[51]
  GI50: 1030 nM
  TGI: 7200 nM
[52]
  GI50: 2270 nM
  TGI: 6090 nM
[53]
  GI50: 926 nM
  TGI: > 100000 nM
[54]
  GI50: 1950 nM
  TGI: > 100000 nM

## CN(C)c1ccc(-c2cc(-c3c[nH]c4ccccc34)nc(N)c2C#N)cc1
[1]
  GI50: 1060 nM
  TGI: 3500 nM
[2]
  GI50: 2790 nM
  TGI: 15600 nM
[3]
  GI50: 2140 nM
  TGI: 5120 nM
[4]
  GI50: 3170 nM
  TGI: 19100 nM
[5]
  GI50: 2960 nM
  TGI: > 100000 nM
[6]
  GI50: 419 nM
  TGI: 4210 nM
[7]
  GI50: 4780 nM
  TGI: 31600 nM
[55]
  GI50: 3450 nM
  TGI: 21000 nM
[56]
  GI50: 1780 nM
  TGI: 4660 nM
[8]
  GI50: 2790 nM
  TGI: 23400 nM
[9]
  GI50: 1530 nM
  TGI: 4210 nM
[10]
  GI50: 1850 nM
  TGI: 8720 nM
[11]
  GI50: 446 nM
  TGI: 2160 nM
[12]
  GI50: 2160 nM
  TGI: 10600 nM
[13]
  GI50: 3380 nM
  TGI: 27200 nM
[14]
  GI50: 2150 nM
  TGI: 10500 nM
[15]
  GI50: 2870 nM
  TGI: 10800 nM
[16]
  GI50: 2160 nM
  TGI: 11300 nM
[17]
  GI50: 1510 nM
  TGI: 10400 nM
[18]
  GI50: 2350 nM
  TGI: 17600 nM
[19]
  GI50: 1790 nM
  TGI: 6030 nM
[20]
  GI50: 1890 nM
  TGI: 14100 nM
[21]
  GI50: 4230 nM
  TGI: 27000 nM
[23]
  GI50: 1540 nM
  TGI: 36400 nM
[24]
  GI50: 1670 nM
  TGI: 7210 nM
[26]
  GI50: 1720 nM
  TGI: 4600 nM
[27]
  GI50: 1860 nM
  TGI: 4140 nM
[28]
  GI50: 2080 nM
  TGI: 6710 nM
[29]
  GI50: 1600 nM
  TGI: 4450 nM
[30]
  GI50: 1880 nM
  TGI: 6370 nM
[31]
  GI50: 1780 nM
  TGI: 4600 nM
[32]
  GI50: 1950 nM
  TGI: 4890 nM
[33]
  GI50: 1840 nM
  TGI: 8960 nM
[34]
  GI50: 653 nM
  TGI: > 100000 nM
[35]
  GI50: 1330 nM
  TGI: 3050 nM
[36]
  GI50: 1820 nM
  TGI: > 100000 nM
[37]
  GI50: 1560 nM
  TGI: 3580 nM
[38]
  GI50: 466 nM
  TGI: 10100 nM
[39]
  GI50: 2780 nM
  TGI: 10700 nM
[57]
  GI50: 3130 nM
  TGI: 15700 nM
[40]
  GI50: 1840 nM
  TGI: 3600 nM
[41]
  GI50: 1830 nM
  TGI: 6960 nM
[42]
  GI50: 2050 nM
  TGI: 4880 nM
[43]
  GI50: 1890 nM
  TGI: 4740 nM
[44]
  GI50: 2320 nM
  TGI: 7830 nM
[45]
  GI50: 4100 nM
  TGI: 39800 nM
[46]
  GI50: 2110 nM
  TGI: 6030 nM
[47]
  GI50: 1920 nM
  TGI: 7090 nM
[48]
  GI50: 1720 nM
  TGI: 6430 nM
[49]
  GI50: 1300 nM
  TGI: 3130 nM
[50]
  GI50: 1700 nM
  TGI: 4350 nM
[51]
  GI50: 2050 nM
  TGI: 7270 nM
[52]
  GI50: 2220 nM
  TGI: 7310 nM
[53]
  GI50: 485 nM
  TGI: 10400 nM
[54]
  GI50: 3890 nM
  TGI: 31900 nM
